Results: patent publication US8470765B2, “Polypeptides and antibacterial or antiseptic use of same” (AnGes MG, Inc., priority 2009, dated 2013)
In brackets after ≈: the same amount, converted by molar mass. No end group written: not given here.

Experiments:
[1] = system: Escherichia coli ATCC 25922; experiment: microbe, parasite or virus in culture; assay type: cell-based; conditions: Table 5; unit not given
Method: (§1) Bacteria (Escherichia coli ATCC 25922, Pseudomonas aeruginosa ATCC 27853, Staphylococcus aureus ATCC29213, Klebsiella pneumoniae JCM 1662, Enterobacter cloacae JCM 1232, Enterobacter aerogenes JCM 1235 and Staphylococcus epidermidis JCM 2414) were inoculated to Mueller-Hinton broth: MHB or LB medium, and cultured at a temperature and period suited for each strain. From the thus obtained colonies, each strain was inoculated to a fresh liquid medium and cultured for 16 to 20 hours. Then an aliquot having a volume (10 to 50 appropriate to each strain was inoculated to a fresh liquid medium and cultured for 4 to 6 hours, followed by the measurement of the absorbance at 600 nm. After comparing the turbidity with McFarland #0.5, the resultant was diluted with a medium. Each strain was added to about 10^5 CFU/mL (final concentration). Each of the peptide solutions to be tested was diluted with MHB to obtain a solution of 128 μg/mL. […] As controls, tobramycin (TOB: aminoglucoside antibiotic), oxacillin (OX:β-lactam antibiotic), meropenem (MEPM: carbapenem antibiotic) and ciprofloxacin (new quinolone antibiotic) were used. […] To a 96-well microtiter plate, 0.1 mL of the inoculation solution and 0.1 mL of the peptide- or positive control-containing medium having the respective concentration were added, and cultured at 37° C. for 16 to 24 hours (or a time period suited for the growth of the respective strain). The well not containing the sample was used as a negative control. After the culturing, the growth was visually observed, and the minimum concentration at which the growth was inhibited was defined as the minimum growth inhibition concentration (MIC). The medium used in this test for bacteria was Mueller-Hinton broth. Independent experiments were carried out twice or more for each strain.

[2] = system: Pseudomonas aeruginosa ATCC 27853; experiment: microbe, parasite or virus in culture; assay type: cell-based; conditions: Table 5; unit not given
Method: as §1

[3] = system: Staphylococcus aureus ATCC29213; experiment: microbe, parasite or virus in culture; assay type: cell-based; conditions: Table 5; unit not given
Method: as §1

[4] = system: Staphylococcus epidermidis JCM 2414; experiment: microbe, parasite or virus in culture; assay type: cell-based; conditions: Table 5; unit not given
Method: as §1

[5] = system: Escherichia coli ATCC 25922; experiment: ATP Assay (viability at 3 hours), Table 6; assay type: cell-based; conditions: 3 h, 5 μg/mL
Method: (§2) Bacteria (Escherichia coli ATCC 25922, Pseudomonas aeruginosa ATCC 27853, Staphylococcus aureus ATCC29213, and Staphylococcus epidermidis JCM 2414) were inoculated to Mueller-Hinton broth: MHB or LB medium, and cultured at a temperature and period suited for each strain. From the thus obtained colonies, each strain was inoculated to a fresh liquid medium and cultured for 16 to 20 hours. Then an aliquot having a volume (10 to 50 μL) appropriate to each strain was inoculated to a fresh liquid medium and cultured for 4 to 6 hours, followed by the measurement of the absorbance at 600 nm. After comparing the turbidity with McFarland #0.5, the resultant was diluted with a medium. Each strain was added to about 10^5 CFU/mL (final concentration).
(§3) Each of the peptide solutions to be tested was diluted with the medium to obtain a solution of 10 μg/mL. As positive controls, tobramycin (TOB), oxacillin (OX) and meropenem (MEPM) were used. By dilution with sterilized purified water to 1.0 mg/mL, positive control-containing media having concentrations of […], respectively for TOB; 0.5, 0.12 and 0.06 μg/mL, respectively, for OX; and 1.0, 0.25, 0.12, 0.06, 0.03 and 0.008 μg/mL respectively, for MEPM, were prepared. To a 96-well microtiter plate, 0.1 mL of the inoculation solution and 0.1 mL of the peptide- or positive control-containing medium having the respective concentration were added, and cultured at 37° C. for 3 hours. The well not containing the sample was used as a negative control. After the culturing, ATP was measured using BacTiter-Glo Microbial Cell Viability Assay kit of PROMEGA, and compared with that in the negative control to obtain a relative value which was defined as a viability. The antibacterial activity was evaluated based on the viability at 3 hours later using ATP as an index.
(§4) The medium used in this test for bacteria was Mueller-Hinton broth. Independent experiments were carried out twice for each strain.

[6] = system: Pseudomonas aeruginosa ATCC 27853; experiment: ATP Assay (viability at 3 hours), Table 6; assay type: cell-based; conditions: 3 h, 5 μg/mL
Method: as §2, §3, §4

[7] = system: Staphylococcus aureus ATCC29213; experiment: ATP Assay (viability at 3 hours), Table 6; assay type: cell-based; conditions: 3 h, 5 μg/mL
Method: as §2, §3, §4

Fusarium solani JCM11383 = conditions: Table 4; two tests, first/second value where not identical
[8] = system: Alternaria alternata JCM5800; conditions: Table 4; two tests, first/second value where not identical
[9] = system: Trichophyton mentagrophytes NBRC6124; conditions: Table 4; two tests, first/second value where not identical
[10] = system: Trichophyton rubrum NBRC9185; conditions: Table 4; two tests, first/second value where not identical
Candida krusei NBRC1395 = conditions: Table 4; two tests, first/second value where not identical

Compound	MIC Escherichia coli [1]	MIC Pseudomonas aeruginosa [2]	MIC Staphylococcus aureus [3]	MIC Staphylococcus epidermidis [4]	Escherichia coli ATP (viability, relative value to negative control) [5]	Pseudomonas aeruginosa ATP (viability, relative value to negative control) [6]	Staphylococcus aureus ATP (viability, relative value to negative control) [7]	MIC Fusarium solani (Fusarium solani JCM11383)	MIC Alternaria alternata [8]	MIC Trichophyton mentagrophytes [9]	MIC Trichophyton rubrum [10]	MIC Candida krusei (Candida krusei NBRC1395)
KRLGERLKRKIQKLIRL-NH2 [SRP-30]	64	8-16	16-64	8-16	19.9	2.0	6.3					
GRLKRLGKRLKRKIQKLARL-NH2 [SRP-32]	16	8-16	16	4-8	7.0	1.6	5.2					
RLKRLGERLKRKIQKLIR-NH2 [SRP-34]	8-16	8-16	16-32	8-16	4.4	2.8	2.6					
C[C@@H]1[C@H](O)[C@@H](C)/C=C/C=C/C=C/C=C/C=C/C=C/C=C/[C@H](O[C@@H]2O[C@H](C)[C@@H](O)[C@H](N)[C@@H]2O)C[C@@H]2O[C@](O)(C[C@@H](O)C[C@@H](O)[C@H](O)CC[C@@H](O)C[C@@H](O)CC(=O)O[C@H]1C)C[C@H](O)[C@H]2C(=O)O [amphotericin B, reference compound]								1000 µg/mL (≈ 1080 µM)	1000 µg/mL (≈ 1080 µM)	125 µg/mL (≈ 135 µM)	250 µg/mL (≈ 271 µM)	2000 µg/mL (≈ 2160 µM)
Ac-RLKRLGERLKRKIQKLIRL-NH2 [SRP-33]	8-16	8-16	16	8-16	2.9	2.8	1.6					
GERLKRKIQKWIRW-NH2 [SRP-26]	16-32	16	16	16-32	9.0	6.2	12.9					
MGERLKRKIQKWIRW-NH2 [SRP-25]	16	16	16	8-32	23.5	15.4	10.9					
RLKRLGERLKRKIQKLI-NH2 [SRP-35]	8-16	8-16	16-32	8	3.6	5.2	2.1					
